The target of one assay is T1, ROCK1 kinase (Homo sapiens, UniProt Q13464).
T1 construct: purchased Invitrogen
The assay is described as follows: In vitro evaluation of ROCK1 kinase selectivity (HTRF KinEASE-STK time-resolved fluorometric assay). In kind it is biochemical. How it is done:
ROCK1 activity was detected using a 96-well (Cisbio) time-resolved fluorometric assay. The assay for ROCK1 was performed in the following assay buffer: 5 mM MgCl2 (Sigma), 1 mM DTT (Sigma) and 1× kinase buffer. The kinase buffer was used for dilution. 7.5 μL of ROCK1 kinase (Invitrogen) was added to a 96-well microplate to reach a final concentration of 0.4 ng/μL, and then 0.25 μL of test compound (DMSO content: 1%) was added. The mixture was incubated at room temperature for 0.5 h. To start the reaction, the kinase buffer was also used to mix ATP (Aladdin) and the substrate STK-substrate 2-biotin. 7.5 μL of the mixed solution was added to the microplate to reach final concentrations of 3.53 μM and 1 μM. The resulting mixture was incubated for 2 h at room temperature. […] was mixed with STK antibody-Cryptate, and then an appropriate volume of the mixture was mixed with an equal volume of streptavidin-XL665. 10 μL of the resulting mixture was added to stop the reaction. After further incubation for about 1 h, the microplate was read on a Molecular Devices SpectraMax i3x multifunctional microplate reader. The kinase buffer, the STK-substrate 2-biotin, the detection buffer, the STK antibody-Cryptate, and the streptavidin-XL665 were all from HTRF KinEASE-STK kit (Cisbio, 1000 tests, 61[…]).

A further assay concerns the target T2, ROCK2 kinase (Homo sapiens, UniProt O75116).
T2 construct: purchased Invitrogen PV3759
Briefly: In vitro evaluation of ROCK2 kinase activity (HTRF KinEASE-STK time-resolved fluorometric assay). In kind it is biochemical. How it is done: ROCK2 activity screening. ROCK2 activity was detected using a 96-well (Cisbio) time-resolved fluorometric assay. The assay for ROCK2 was performed in the following assay buffer: 5 mM MgCl2 (Sigma), 1 mM DTT (Sigma) and 1× kinase buffer. The kinase buffer was used for dilution. 7.5 μL of ROCK2 kinase (Invitrogen, PV3759) was added to a 96-well microplate to reach a final concentration of 0.4 ng/μL, and then 0.25 μL of test compound (DMSO content: 1% (volume fraction)) was added. The mixture was incubated at room temperature for 0.5 h. To start the reaction, the kinase buffer was used to mix ATP (Aladdin) and the substrate STK-substrate 2-biotin. 7.5 μL of the mixed solution was added to the microplate to reach final concentrations of 6.739 μM and 1 μM. The resulting mixture was incubated for 2 h at room temperature. 5 mL of detection buffer was mixed with STK antibody-Cryptate, and then an appropriate volume of the mixture was mixed with an equal volume of streptavidin-XL665. 10 μL of the resulting mixture was added to the microplate to stop the reaction. After further incubation for about 1 h, the microplate was read on a Molecular Devices SpectraMax i3x multifunctional microplate reader. The kinase buffer, the STK-substrate 2-biotin, the detection buffer, the STK antibody-Cryptate, and the streptavidin-XL665 were all from HTRF KinEASE-STK kit (Cisbio, 1000 tests, 61[…]).

T2 sequence (O75116 whole entry): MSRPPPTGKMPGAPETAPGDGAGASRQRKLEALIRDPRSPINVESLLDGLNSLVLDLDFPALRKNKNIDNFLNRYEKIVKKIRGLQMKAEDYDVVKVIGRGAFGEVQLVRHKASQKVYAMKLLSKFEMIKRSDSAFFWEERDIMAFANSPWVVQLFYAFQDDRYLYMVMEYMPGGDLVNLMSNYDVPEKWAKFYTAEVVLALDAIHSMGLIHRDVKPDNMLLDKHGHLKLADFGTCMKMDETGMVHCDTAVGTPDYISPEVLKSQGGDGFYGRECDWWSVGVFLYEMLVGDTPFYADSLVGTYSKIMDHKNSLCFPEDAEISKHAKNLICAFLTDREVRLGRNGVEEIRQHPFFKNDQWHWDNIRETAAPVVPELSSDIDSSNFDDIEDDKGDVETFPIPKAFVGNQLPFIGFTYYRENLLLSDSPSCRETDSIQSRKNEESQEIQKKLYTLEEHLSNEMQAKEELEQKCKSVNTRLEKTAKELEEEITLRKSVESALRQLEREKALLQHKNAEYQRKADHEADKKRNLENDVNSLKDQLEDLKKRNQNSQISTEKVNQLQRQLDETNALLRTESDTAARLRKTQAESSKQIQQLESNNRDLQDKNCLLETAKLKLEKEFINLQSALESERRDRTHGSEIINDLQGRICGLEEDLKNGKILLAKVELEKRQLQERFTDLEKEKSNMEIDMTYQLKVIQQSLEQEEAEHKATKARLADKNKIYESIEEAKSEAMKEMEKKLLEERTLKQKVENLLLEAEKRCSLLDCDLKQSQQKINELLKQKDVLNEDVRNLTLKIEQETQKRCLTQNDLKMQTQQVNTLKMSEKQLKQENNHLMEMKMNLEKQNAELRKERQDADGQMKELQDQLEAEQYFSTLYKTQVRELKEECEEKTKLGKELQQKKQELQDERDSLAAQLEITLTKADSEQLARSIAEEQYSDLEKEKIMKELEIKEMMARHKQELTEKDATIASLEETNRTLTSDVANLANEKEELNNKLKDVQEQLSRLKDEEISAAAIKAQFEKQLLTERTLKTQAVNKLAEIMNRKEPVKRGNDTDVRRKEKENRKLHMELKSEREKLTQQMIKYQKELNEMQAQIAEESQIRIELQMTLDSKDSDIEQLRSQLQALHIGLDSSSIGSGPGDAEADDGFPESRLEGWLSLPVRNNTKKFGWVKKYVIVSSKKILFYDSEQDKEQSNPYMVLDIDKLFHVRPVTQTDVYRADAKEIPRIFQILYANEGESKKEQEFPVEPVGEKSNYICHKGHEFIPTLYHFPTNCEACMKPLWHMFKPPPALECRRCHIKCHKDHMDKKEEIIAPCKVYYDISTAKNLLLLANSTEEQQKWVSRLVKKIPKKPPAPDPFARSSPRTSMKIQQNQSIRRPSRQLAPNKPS
T1 sequence (Q13464 whole entry): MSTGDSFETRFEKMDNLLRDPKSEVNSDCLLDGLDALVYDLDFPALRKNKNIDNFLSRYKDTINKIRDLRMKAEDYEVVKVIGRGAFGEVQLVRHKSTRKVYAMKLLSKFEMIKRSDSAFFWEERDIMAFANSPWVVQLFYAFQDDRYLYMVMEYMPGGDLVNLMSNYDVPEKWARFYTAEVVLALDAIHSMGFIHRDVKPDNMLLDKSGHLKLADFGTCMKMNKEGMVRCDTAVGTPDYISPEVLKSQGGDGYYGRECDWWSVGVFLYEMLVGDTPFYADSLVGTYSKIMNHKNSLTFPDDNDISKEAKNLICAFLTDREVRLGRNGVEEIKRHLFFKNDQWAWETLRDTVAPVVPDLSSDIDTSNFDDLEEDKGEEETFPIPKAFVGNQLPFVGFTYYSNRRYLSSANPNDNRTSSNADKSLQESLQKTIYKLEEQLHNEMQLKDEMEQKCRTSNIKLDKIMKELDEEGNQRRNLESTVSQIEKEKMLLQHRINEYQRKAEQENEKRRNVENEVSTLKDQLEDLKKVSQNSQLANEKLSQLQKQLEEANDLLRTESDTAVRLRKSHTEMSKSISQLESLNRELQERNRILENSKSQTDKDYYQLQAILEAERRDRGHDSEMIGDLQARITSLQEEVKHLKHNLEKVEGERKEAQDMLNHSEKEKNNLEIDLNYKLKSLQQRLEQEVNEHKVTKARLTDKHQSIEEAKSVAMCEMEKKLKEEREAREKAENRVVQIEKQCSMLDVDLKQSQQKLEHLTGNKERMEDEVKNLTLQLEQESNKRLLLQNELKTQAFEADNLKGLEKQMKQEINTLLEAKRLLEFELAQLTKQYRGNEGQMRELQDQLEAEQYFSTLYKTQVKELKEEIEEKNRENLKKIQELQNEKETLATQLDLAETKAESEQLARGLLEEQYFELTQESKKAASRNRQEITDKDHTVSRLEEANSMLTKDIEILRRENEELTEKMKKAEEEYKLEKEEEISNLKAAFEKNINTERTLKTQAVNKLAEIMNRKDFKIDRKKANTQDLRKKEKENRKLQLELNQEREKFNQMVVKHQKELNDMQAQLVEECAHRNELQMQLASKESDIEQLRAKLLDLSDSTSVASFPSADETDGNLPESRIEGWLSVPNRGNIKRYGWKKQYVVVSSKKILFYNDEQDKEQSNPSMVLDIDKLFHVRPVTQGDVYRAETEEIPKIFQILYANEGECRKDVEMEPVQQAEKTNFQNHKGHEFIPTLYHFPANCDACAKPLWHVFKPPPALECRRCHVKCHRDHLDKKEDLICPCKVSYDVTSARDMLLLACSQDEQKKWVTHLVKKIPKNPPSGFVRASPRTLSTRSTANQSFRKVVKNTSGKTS

With `COc1cc(F)cc(C(CN(C)C)NC(=O)N2CCc3cc(-c4c[nH]nc4F)c(F)cc32)c1` (racemic) [Compound T388, (+/−)N-(2-(dimethylamino)-1-(3-fluoro-5-methoxyphenyl)ethyl)-6-fluoro-5-(3-fluoro-1H-pyrazol-4-yl)indoline-1-carboxamide], the half-inhibitory concentration (IC50) was 50 to 500 nM at ROCK1 kinase and at most 50 nM on ROCK2 kinase.
Consider `COc1cc(F)cc(CN(C)C(=O)N2CCc3cc(-c4cn[nH]c4)ccc32)c1` [Compound T206, N-(3-fluoro-5-methoxybenzyl)-N-methyl-5-(1H-pyrazol-4-yl)indoline-1-carboxamide], for which the IC50 lay in the range of 500 to 5000 nM against ROCK1 kinase and 50 to 500 nM at ROCK2 kinase.
As for `O=C(NCc1ccccc1)N1CCc2cc(-c3cn[nH]c3)ccc21` [Compound T207, N-benzyl-5-(1H-pyrazol-4-yl)indoline-1-carboxamide], the concentration for half-maximal inhibition (IC50) on ROCK1 kinase and at ROCK2 kinase was at most 50 nM each time.
Turning to `COc1cc(F)cc(CNC(=O)N2CCc3ccc(-c4cn[nH]c4)cc3C2)c1` [Compound T208, N-(3-fluoro-5-methoxybenzyl)-7-(1H-pyrazol-4-yl)-3,4-dihydroisoquinoline-2(1H)-carboxamide], the 50% inhibitory concentration (IC50) against ROCK1 kinase and against ROCK2 kinase was at most 50 nM each time.
On to `COc1cc(F)cc(CNC(=O)N2Cc3ccc(-c4cn[nH]c4)cc3C2)c1` [Compound T209, N-(3-fluoro-5-methoxybenzyl)-5-(1H-pyrazol-4-yl)isoindoline-2-carboxamide], for which the IC50 on ROCK1 kinase and on ROCK2 kinase was 50 to 500 nM throughout.
On to `COc1cc(F)cc(CNC(=O)n2ccc3cc(-c4cn[nH]c4)ccc32)c1` [Compound T210], for which the half-maximal inhibitory concentration (IC50) against ROCK1 kinase and against ROCK2 kinase was 50 to 500 nM in each case.
In the case of `COc1cc(F)cc(CN(CC2COC2)C(=O)N2CCc3cc(-c4cn[nH]c4)ccc32)c1` [Compound T212], the half-inhibitory concentration (IC50) on ROCK1 kinase and against ROCK2 kinase was 500 to 5000 nM in each case.
As for `COCCOc1cc(F)cc(CNC(=O)N2CCc3cc(-c4cn[nH]c4)ccc32)c1` [Compound T213], the IC50 against ROCK1 kinase and at ROCK2 kinase was at most 50 nM in each case.
Take `COc1cc(F)cc(CN(C(=O)N2CCc3cc(-c4cn[nH]c4)ccc3C2)C2COC2)c1` [Compound T214]: the concentration for half-maximal inhibition (IC50) against ROCK1 kinase and against ROCK2 kinase was 50 to 500 nM in each case.
Turning to `COc1cc(F)cc(CN(C(=O)N2CCc3cc(-c4cn[nH]c4)ccc32)C2CCOCC2)c1` [Compound T215], the 50% inhibitory concentration (IC50) on ROCK1 kinase and on ROCK2 kinase was 500 to 5000 nM each time.
For `COc1cc(F)cc(CN(C(=O)N2CCc3cc(-c4cn[nH]c4)ccc3C2)C2CCOCC2)c1` [Compound T216], the IC50 against ROCK1 kinase and against ROCK2 kinase was 50 to 500 nM each time.
For the compound `COc1cc(F)cc(CNC(=O)N2CCc3cc(-c4c[nH]nn4)ccc32)c1` [Compound T217, N-(3-fluoro-5-methoxybenzyl)-5-(1H-1,2,3-triazol-4-yl)indoline-1-carboxamide], the IC50 at ROCK1 kinase and against ROCK2 kinase was 50 to 500 nM in each case.
For `COc1cc(F)cc(CNC(=O)N2CCc3cc(-c4cn[nH]c4)cnc32)c1` [Compound T218, N-(3-fluoro-5-methoxybenzyl)-5-(1H-pyrazol-4-yl)-2,3-dihydro-1H-pyrrolo(2,3-b)pyridine-1-carboxamide], the IC50 was 50 to 500 nM against ROCK1 kinase and 500 to 5000 nM against ROCK2 kinase.
Regarding `COc1cc(F)cc(CNC(=O)N2CCc3cc(-c4cn[nH]c4)ncc32)c1` [Compound T219], the concentration for half-maximal inhibition (IC50) against ROCK1 kinase and against ROCK2 kinase was at most 50 nM in each case.
As for `COc1cc(F)cc(CNC(=O)N2CCc3nc(-c4cn[nH]c4)ccc32)c1` [Compound T220, N-(3-fluoro-5-methoxybenzyl)-5-(1H-pyrazol-4-yl)-2,3-dihydro-1H-pyrrolo(3,2-b)pyridine-1-carboxamide], the IC50 against ROCK1 kinase and at ROCK2 kinase was 50 to 500 nM in each case.
With `COc1cc(F)cc(CNC(=O)N2CCc3cc(-c4cn[nH]c4)cc(Cl)c32)c1` [Compound T221, 7-chloro-N-(3-fluoro-5-methoxybenzyl)-5-(1H-pyrazol-4-yl)indoline-1-carboxamide], the half-inhibitory concentration (IC50) against ROCK1 kinase and at ROCK2 kinase was 50 to 500 nM each time.
Regarding `COc1cc(F)cc(CNC(=O)N2CCc3cc(-c4cn[nH]c4)c(Cl)cc32)c1` [Compound T222, 6-chloro-N-(3-fluoro-5-methoxybenzyl)-5-(1H-pyrazol-4-yl)indoline-1-carboxamide], the half-maximal inhibitory concentration (IC50) against ROCK1 kinase and against ROCK2 kinase was at most 50 nM in each case.
On to `COc1cc(F)cc(CNC(=O)N2CC(C)(C)c3cc(-c4cn[nH]c4)ccc32)c1` [Compound T223], for which the half-maximal inhibitory concentration (IC50) against ROCK1 kinase and on ROCK2 kinase was at most 50 nM throughout.
`COc1cc(F)cc(CNC(=O)N2CCc3nc(-c4cn[nH]c4)sc3C2)c1` [Compound T224, N-(3-fluoro-5-methoxybenzyl)-2-(1H-pyrazol-4-yl)-6,7-dihydrothiazolo[5,4-c]pyridine-5(4H)-carboxamide]: the IC50 on ROCK1 kinase and against ROCK2 kinase was 50 to 500 nM throughout.
As for `COc1cc(F)cc(CNC(=O)N2CCc3cc(-c4cn[nH]c4)c(F)cc32)c1` [Compound T225, 6-fluoro-N-(3-fluoro-5-methoxybenzyl)-5-(1H-pyrazol-4-yl)indoline-1-carboxamide], the IC50 at ROCK1 kinase and at ROCK2 kinase was at most 50 nM throughout.
Consider `O=C(NCc1cc(F)cc(F)c1)N1CCc2cc(-c3cn[nH]c3)ccc21` [Compound T226], for which the half-maximal inhibitory concentration (IC50) is 50 to 500 nM at ROCK1 kinase and at most 50 nM on ROCK2 kinase.
As to `COc1cc(CNC(=O)N2CCc3cc(-c4cn[nH]c4)ccc32)ccn1` [Compound T227], the IC50 against ROCK1 kinase and against ROCK2 kinase was at most 50 nM in each case.
Regarding `COc1cc(F)cc(CNC(=O)N2CCc3c2cc(F)c(-c2cn[nH]c2)c3F)c1` [Compound T228, 4,6-difluoro-N-(3-fluoro-5-methoxybenzyl)-5-(1H-pyrazol-4-yl)indoline-1-carboxamide], the IC50 on ROCK1 kinase and against ROCK2 kinase was at most 50 nM each time.
In the case of `COc1cc(F)cc(CNC(=O)N2CCCc3nc(-c4cn[nH]c4)sc32)c1` [Compound T229], the IC50 on ROCK1 kinase and against ROCK2 kinase was at most 50 nM each time.
Turning to `COc1cc(F)cc(CNC(=O)N2CCCc3sc(-c4cn[nH]c4)nc32)c1` [Compound T230], the IC50 on ROCK1 kinase and at ROCK2 kinase was 50 to 500 nM each time.
Turning to `COc1cc(F)cc(CNC(=O)N2CCc3nc(-c4cn[nH]c4)ncc32)c1` [Compound T231], the concentration for half-maximal inhibition (IC50) on ROCK1 kinase and at ROCK2 kinase was at most 50 nM each time.
Turning to `COc1cc(F)cc(CNC(=O)c2cnc3cc(-c4cn[nH]c4)ccn23)c1` [Compound T233], the IC50 against ROCK1 kinase and against ROCK2 kinase was at most 50 nM each time.
Regarding `COc1cc(F)cc(CNC(=O)c2ncc3cc(-c4cn[nH]c4)ccn23)c1` [Compound T234], the IC50 at ROCK1 kinase and at ROCK2 kinase was at most 50 nM in each case.
Consider `COc1cc(F)cc(CNC(=O)c2ccc3nc(-c4cn[nH]c4)ccn23)c1` [Compound T235], for which the IC50 at ROCK1 kinase and against ROCK2 kinase was at most 50 nM each time.
Consider `COc1cc(F)cc(CNC(=O)c2nn(C)c3cc(-c4cn[nH]c4)ccc23)c1` [Compound T236], for which the IC50 against ROCK1 kinase and against ROCK2 kinase was at most 50 nM each time.
The compound `COc1cccc(F)c1C(CO)NC(=O)N1CCc2cc(-c3cn[nH]c3)c(F)cc21` (stereo not shown) [Compound T363, 6-fluoro-N-(1-(2-fluoro-6-methoxyphenyl)-2-hydroxyethyl)-5-(1H-pyrazol-4-yl)indoline-1-carboxamide] yielded a half-maximal inhibitory concentration (IC50) at ROCK2 kinase of 50 to 500 nM.

(Values after patent US20230050653A1, “ROCK INHIBITOR AND PREPARATION METHOD THEREFOR AND USE THEREOF” (WUHAN LL SCIENCE AND TECHNOLOGY DEVELOPMENT CO., LTD., priority 2019, published 2023).)
